Experiment [1] has as its target T1, Cloned Human Serotonin Receptor, Subtype 7 (h5HT7) (Homo sapiens, UniProt P34969).
T1 construct: purchased PerkinElmer 6120512; host or cells: CHO cells
The experiment in a line: Radioligand binding 5HT7. The procedure:
Radioligand binding assays were performed using the Cloned Human Serotonin Receptor, Subtype 7 (h5HT7), expressed in CHO cells, coated on Flashplate (Basic FlashPlate Cat.: SMP200) from PerkinElmer (Cat.: 6120512). The protocol assay was essentially the recommended protocol in the Technical Data Sheet by PerkinEmer Life and Analytical Sciences. The Mass membrane protein/well was typically 12 μg and the Receptor/well was about 9-10 fmoles. The Flashplate were let equilibrate at room temperature for one hour before the addition of the components of the assay mixture. The binding buffer was: 50 mM Tris-HCl, pH 7.4, containing 10 mM MgCl2, 0.5 mM EDTA and 0.5% BSA. The radioligand was [^125I]LSD at a final concentration of 0.82 nM. Nonspecific binding was determined with 50 μM of Clozapine. The assay volume was 25 μl. TopSeal-A were applied onto Flashplate microplates and they were incubated at room temperature for 240 minutes in darkness. The radioactivity were quantified by liquid scintillation spectrophotometry (Wallac 1450 Microbeta Trilux) with a count delay of 4 minutes prior to counting and a counting time of 30 seconds per well. Competition binding data were analyzed by using the LIGAND program (Munson and Rodbard, LIGAND: A versatile, computerized approach for characterization of ligand-binding systems. Anal. Biochem. 107: 220-239, 1980) and assays were performed in triplicate determinations for each point.

Experiment [2] addresses 5-HT6 (Homo sapiens, UniProt P50406). The experiment in a line: 5-HT6 inhibition. In kind it is binding. As to conditions: 10^−7M; as dihydrochloride; read-out: 5-HT6 inhib. (10^−7M) (%).
The subject of experiment [3] is Male CD1 mice. The experiment in a line: Tail Flick Test. It counts as in vivo. (In general: In hot-plate and tail-flick tests a longer latency is read as antinociception.)
Experiment [4] concerns the target 5HT7 receptor (Homo sapiens, UniProt P34969). As to conditions: statement in the definitions; cited from earlier work.
Experiment [5] concerns Male CD1 mice. As to conditions: day 5, morphine 4 mg/kg alone (vs Non-Tolerant) or + Chemical Example 1 10 mg/kg (vs morphine only).
Method: (§1) The mice were kept on the hot plate for no longer than 450 seconds in order to avoid the development of cutaneous lesions. The vehicle, the active substances and the inventive active substance combination to be tested were administered—sometimes in differing concentrations—by s.c. injection to different groups of mice. 0.5 hours after the administration the animals are put onto the hot plate and the time is measured until they show signs of pain, divided by Fore Paw Licking (FPL), Hind Paw Licking (HPL) and Jumping, to allow conclusions on differentiations of pain types through the different pain symptoms/signs of pain. The analgesic efficacy of the active substances or active substance combination is calculated on the basis of the values obtained for the comparison group of mice to which is only administered the vehicle (baseline). By comparing to baseline (defined as 0% analgesia) and to a failure of pain signs (defined as 100% analgesia) Percentage of analgesia was determined. In some cases based on this calculation and with different concentrations of the active substances or active substance combination ED50 values were determined.
Male CD1 Mice were divided in 2 groups, the group receiving s.c. injections of morphine in high doses to develop tolerance (hereinafter called Tolerants), and the group receiving only vehicle (called Non-Tolerants). The following treatment scheme was followed:
The mice were placed 30 minutes after injection on the hot plate heated to 50° C. The signs of pain shown were divided by Fore Paw Licking (FPL), Hind Paw Licking (HPL) and Jumping and measured/counted. The Baseline was determined based on saline injection. Significance values were determined vs. respective “non tolerant” group, the “Morphine-tolerant group” or the “Morphine-non tolerant group” with *** p<0.001 vs. respective “non tolerant” group, # # # p<0.001 vs. “Morphine-tolerant group” and α α α p<0.001 vs. “Morphine-non tolerant group” (Newman-Keuls Multiple Comparison Test post-ANOVA).
The test system of experiment [6] is Male CD1 mice. As to conditions: day 5; morphine 4 mg/kg alone (vs Non-Tolerant) or + Chemical Example 1 10 mg/kg (vs morphine only); FIG. 12.
Method: Briefly, the animals (male CD1 mice) were restrained in a Plexiglas tube and placed on the tail flick apparatus (LI 7100, Letica, S. A., Spain). A noxious beam of light was focussed on the tail, and the tail flick latency was recorded automatically to the nearest 0.1 s. The intensity of the radiant heat source was adjusted to yield baseline latencies between 2 and 3 s; this intensity was never changed and any animal whose baseline latency was outside the pre-established limits was excluded from the experiments. In order to minimise injury in the animals, a cut-off time of 10 s was used. The animals received an s.c. injection of the vehicle (saline), drug or drug combination under study, and tail flick latencies were measured and are measured at 45 min after drug or vehicle administration. Baseline tail flick latencies were recorded after saline/vehicle injection. By comparing to baseline (defined as 0% analgesia) and to a failure of pain reaction/tail flick (defined as 100% analgesia) Percentage of analgesia was determined.
Male CD1 Mice were divided in 2 groups, the group receiving s.c. injections of morphine in high doses to develop tolerance (hereinafter called Tolerants), and the group receiving only vehicle (called Non-Tolerants). […]
The mice were placed 45 minutes after injection in the tail-flick apparatus. The Baseline was determined based on saline injection. […]
For experiment [7], the system named is Male CD1 mice. Briefly: animal or person. As to conditions: Mus musculus, sc.
Method: Male CD1 mice aged from 6 to 8 weeks old were used in these studies. Animals were housed in groups of five, provided with food and water ad libitum and kept in controlled laboratory conditions with the temperature maintained at 21±1° C. and light in 12 h cycles (on at 07:00 h and off at 19:00 h). Experiments were carried out in a soundproof and air-regulated experimental room. The number of mice ranged from 8 to 16 per group in each individual experiment.
All the compounds were dissolved in physiological saline and administered in a volume of 5 ml/kg of body weight through the subcutaneous (s.c.) route. When compounds were co-administered, they were injected s.c. opposite flanks of the mice. The doses of drugs refer to their salt forms.
The analgesic activity of the inventive active substance combination is determined in male CD1 following and adapting the description in the publication of G. Woolfe and A. D. MacDonald, J. Pharm.
as §1
[8] abbreviates: read-out: 5-HT7 %-Inhib. (10^−6 M).
[9] abbreviates: read-out: 5-HT7 %-Inhib. (10^−7 M).
Where [10] appears, read: read-out: 5-HT7 %-Inhib. (10^−8 M).

Counter-ions that a name gives are not always drawn. Like-named read-outs stand apart in the source and are kept apart here.

A word on the IC50: it is the concentration that inhibits the measured activity by half. Lower therefore signals greater potency. As a reminder, the ED50 is the dose that gives a 50% effect, or the effect in half of the subjects.

T1 sequence (P34969 whole entry): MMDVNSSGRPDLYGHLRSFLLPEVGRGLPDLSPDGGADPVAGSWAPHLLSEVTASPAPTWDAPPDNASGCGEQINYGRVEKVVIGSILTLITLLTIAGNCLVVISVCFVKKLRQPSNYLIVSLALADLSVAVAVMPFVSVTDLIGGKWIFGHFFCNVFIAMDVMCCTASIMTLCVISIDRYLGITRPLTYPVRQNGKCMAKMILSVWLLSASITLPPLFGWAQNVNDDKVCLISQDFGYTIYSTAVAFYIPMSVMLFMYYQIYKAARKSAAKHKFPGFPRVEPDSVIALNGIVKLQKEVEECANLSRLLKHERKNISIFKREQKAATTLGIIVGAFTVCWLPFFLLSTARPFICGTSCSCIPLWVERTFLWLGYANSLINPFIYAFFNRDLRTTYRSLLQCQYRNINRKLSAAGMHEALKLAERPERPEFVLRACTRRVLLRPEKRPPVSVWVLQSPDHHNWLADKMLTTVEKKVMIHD
5HT7 receptor, sequence (P34969 whole entry): as above
5-HT6, sequence (P50406 whole entry, species assumed): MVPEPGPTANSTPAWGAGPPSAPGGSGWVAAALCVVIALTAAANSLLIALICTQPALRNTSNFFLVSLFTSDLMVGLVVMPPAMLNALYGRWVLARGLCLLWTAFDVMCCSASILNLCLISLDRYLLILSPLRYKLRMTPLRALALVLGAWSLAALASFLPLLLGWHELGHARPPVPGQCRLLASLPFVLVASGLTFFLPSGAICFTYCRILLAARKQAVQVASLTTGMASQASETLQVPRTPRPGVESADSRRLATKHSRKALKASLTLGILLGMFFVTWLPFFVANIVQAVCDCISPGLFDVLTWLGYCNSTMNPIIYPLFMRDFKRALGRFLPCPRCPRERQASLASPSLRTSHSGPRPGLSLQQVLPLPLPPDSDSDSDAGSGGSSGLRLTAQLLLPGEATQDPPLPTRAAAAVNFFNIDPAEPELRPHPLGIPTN

In the case of `CCN(CC)CCc1cccc(-c2c(C)cccc2C)c1` [Chemical Example 11, [2-(2′,6′-Dimethyl-biphenyl-3-yl)-ethyl]-diethyl-amine], in experiment [1] (read-out: % Inh (10^−6 M)), the inhibition at 1 µM was found to be 98.2%. Also, in experiment [1] (read-out: % Inh (10^−7 M)), the inhibition at 0.1 µM turned out to be 62.3%. Also, in experiment [1] (read-out: % Inh (10^−8 M)), the inhibition at 0.01 µM is -13.7%.
`CN[C@H]1CCc2c(cccc2-c2c(C)nn(C)c2C)C1` [Chemical Example H, (2S)-Methyl-[5-(1,3,5-trimethyl-1H-pyrazol-4-yl)-1,2,3,4-tetrahydro-naphthalen-2-yl]-amine hydrochloride] displayed an IC50 in experiment [1] of 2.3 nM. Besides, the inhibition at 1 µM in experiment [1] (setting [8]) amounted to 98.1%. Moreover, in experiment [1] (setting [9]), the inhibition at 0.1 µM came to 97.8%. Further, the inhibition at 0.01 µM in experiment [1] (setting [10]) stood at 86.1%.
Take `CCN(CC)CCc1cccc(-c2c(C)nn(C)c2C)c1` [Chemical Example 3, Diethyl-{2-[3-(1,3,5-trimethyl-1H-pyrazol-4-yl)-phenyl]-ethyl}-amine]: in experiment [1] (read-out: % Inh (10^−6 M)), the inhibition at 1 µM is 98.1%. The inhibition at 0.1 µM in experiment [1] (read-out: % Inh (10^−7 M)) is 41.5%. The inhibition at 0.01 µM in experiment [1] (read-out: % Inh (10^−8 M)) came to 4.8%.
For `CCCN(CCC)CCc1cccc(-c2c(C)nn(C)c2C)c1` [Chemical Example 4, Dipropyl-{2-[3-(1,3,5-trimethyl-1H-pyrazol-4-yl)-phenyl]-ethyl}-amine] the same measures were 90%, 98.7% and 48.6%.
Regarding `Cc1nn(C)c(C)c1-c1cccc(CCN(C)C)c1` [Chemical Example 1], the inhibition at 0.1 µM is 98.6% in experiment [1] (read-out: % Inh (10^−7 M)) and 5.4% in experiment [2]. In experiment [1] (read-out: % Inh (10^−8 M)), the inhibition at 0.01 µM came to 60.8%. In addition, the “effect on efficacy of a low dose of morphine, tail flick” value in experiment [3] (1.25, 2.5, 5 or 10 mg/kg s.c. + morphine 2 mg/kg (FIG. 9B)) was “increases in a dose-dependent manner”. Besides, the “analgesic effect per se, tail flick” value in experiment [3] (1.25, 2.5, 5 or 10 mg/kg s.c. alone (FIG. 9B)) is “devoid of effect per se”.
Take `COc1cccc(OC)c1-c1cccc(CCN(C)C)c1` [Chemical Example 13, [2-(2′,6′-Dimethoxy-biphenyl-3-yl)-ethyl]-dimethyl-amine]: in experiment [1] (read-out: % Inh (10^−6 M)), the inhibition at 1 µM stood at 105%. The inhibition at 0.1 µM in experiment [1] (read-out: % Inh (10^−7 M)) came out at 60.5%. Besides, the inhibition at 0.01 µM in experiment [1] (read-out: % Inh (10^−8 M)) amounted to 54.4%.
Regarding `CCCN(CCC)C1CCc2cccc(O)c2C1` (stereo not shown) [8-OH-DPAT], in experiment [4], the “agonist classification on the 5-HT7 receptor” value is “agonist”.
Regarding `Cc1nn(C)c(C)c1-c1cccc2c1CC[C@@H](N(C)C)C2` [Chemical Example J, (2R)-Dimethyl-[5-(1,3,5-trimethyl-1H-pyrazol-4-yl)-1,2,3,4-tetrahydro-naphthalen-2-yl]-amine hydrochloride], in experiment [1] (setting [8]), the inhibition at 1 µM is 59.6%. For the same molecule, the inhibition at 0.1 µM in experiment [1] (setting [9]) was 9.6%. Further, the inhibition at 0.01 µM in experiment [1] (setting [10]) is -1.8%.
As to `CN(C)CCc1cccc(-c2cnn(C)c2)c1` [Chemical Example 17, Dimethyl-{2-[3-(1-methyl-1H-pyrazol-4-yl)-phenyl]-ethyl}-amine], the inhibition at 1 µM in experiment [1] (read-out: % Inh (10^−6 M)) is 46%. Moreover, in experiment [1] (read-out: % Inh (10^−7 M)), the inhibition at 0.1 µM is 16.9%. Besides, the inhibition at 0.01 µM in experiment [1] (read-out: % Inh (10^−8 M)) is -1%.
With `Cc1nn(C)c(C)c1-c1cccc2c1CCC(N(C)C)C2` (stereo not shown) [Chemical Example K, Dimethyl-[5-(1,3,5-trimethyl-1H-pyrazol-4-yl)-1,2,3,4-tetrahydro-naphthalen-2-yl]-amine], the IC50 in experiment [1] came to 3.9 nM. The inhibition at 0.1 µM in experiment [1] (setting [9]) amounted to 91.3%. In addition, the inhibition at 0.01 µM in experiment [1] (setting [10]) worked out at 38.8%.
In the case of `CCCN(CCC)CCc1cccc(-c2ccccc2OC)c1` [Chemical Example 24, [2-(2′-Methoxy-biphenyl-3-yl)-ethyl]-dipropyl-amine], the inhibition at 1 µM in experiment [1] (read-out: % Inh (10^−6 M)) was found to be 92.4%. The inhibition at 0.1 µM in experiment [1] (read-out: % Inh (10^−7 M)) stood at 37.8%. Moreover, the inhibition at 0.01 µM in experiment [1] (read-out: % Inh (10^−8 M)) was -1.8%.
Taken in the same sequence, the figures for `Cc1cccc(C)c1-c1cccc(CCN(C)C)c1` [Chemical Example 9, [2-(2′,6′-Dimethyl-biphenyl-3-yl)-ethyl]-dimethyl-amine] were 105%, 88.9% and 65.9%.
In the case of `CCCN(CCC)CCc1cccc(-c2c(C)cccc2C)c1` [Chemical Example 12, [2-(2′,6′-Dimethyl-biphenyl-3-yl)-ethyl]-dipropyl-amine], the inhibition at 1 µM in experiment [1] (read-out: % Inh (10^−6 M)) turned out to be 93.3%. Besides, the inhibition at 0.1 µM in experiment [1] (read-out: % Inh (10^−7 M)) amounted to 92.2%. In experiment [1] (read-out: % Inh (10^−8 M)), the inhibition at 0.01 µM is 43.8%.
On to `Cc1nn(C)c(C)c1-c1cccc2c1CC[C@H](N(C)Cc1ccccc1)C2` [Chemical Example F, (2S)-Benzyl-methyl-[5-(1,3,5-trimethyl-1H-pyrazol-4-yl)-1,2,3,4-tetrahydro-naphthalen-2-yl]-amine], for which the inhibition at 1 µM in experiment [1] (setting [8]) turned out to be 110%. Also, the inhibition at 0.1 µM in experiment [1] (setting [9]) worked out at 44.7%. The inhibition at 0.01 µM in experiment [1] (setting [10]) was found to be 16.3%.
Regarding `CN1CC[C@]23c4c5ccc(O)c4O[C@H]2[C@@H](O)C=C[C@H]3[C@H]1C5` [morphine], in experiment [5] (FIG. 10A), the “analgesic effect, FPL, Tolerant group” value is “reduced”. The “analgesic effect, HPL, Tolerant group” value in experiment [5] (FIG. 10B) is on record as “reduced”. The “analgesic effect, Jump, Tolerant group” value in experiment [5] (FIG. 11) is “reduced”. Also, in experiment [6], the “analgesic effect, tail flick, Tolerant group” value is “significantly reduced”. Besides, the median effective dose (ED50) was found to be 24 mg/kg in experiment [7] (read-out: ED50, Fore Paw Licking (FPL)); 9.28 mg/kg in experiment [7] (read-out: ED50, Hind Paw Licking (HPL)); 3.19 mg/kg in experiment [7] (read-out: ED50, Jumping).
Take `COc1ccccc1-c1cccc(CCN(C)C)c1` [Chemical Example 21, [2-(2′-Methoxy-biphenyl-3-yl)-ethyl]-dimethyl-amine]: the inhibition at 1 µM in experiment [1] (read-out: % Inh (10^−6 M)) amounted to 95.4%. In experiment [1] (read-out: % Inh (10^−7 M)), the inhibition at 0.1 µM turned out to be 69.2%. In experiment [1] (read-out: % Inh (10^−8 M)), the inhibition at 0.01 µM amounted to 20%.
As to `Cc1cccc(S(=O)(=O)N(C)[C@H](C)CCN2CCC(C)CC2)c1.Cl` [SB-258719, (R)-3,N-Dimethyl-N-(1-methyl-3-(4-methylpiperidin-1-yl)propyl)benzene sulfonamide hydrochloride], the “change in the morphine effect, tail flick” value in experiment [3] (SB-258719 10 mg/kg + varying doses of morphine s.c.) was “did not produce any significant change”. For the same molecule, in experiment [3] (morphine 2 mg/kg + Chemical Example 1 10 mg/kg + SB-258719 10 mg/kg s.c. (FIG. 9C)), the “effect on potenciation of morphine analgesia exerted by Chemical Example 1, tail flick” value was “reverted”.

The record behind these values is patent US20100197717A1, “COMBINATION OF A 5HT7 RECEPTOR LIGAND AND AN OPIOID RECEPTOR LIGAND” (priority 2007, published 2010).
